# Data: patent publication US9040712B2, “Thiadiazole analogs thereof and methods for treating SMN-deficiency-related-conditions” (NOVARTIS AG, priority 2013, dated 2015)
# Test system: SMN protein
# Test: cellular SMN ELISA (SMN protein elevation)
# Type: cell-based
# Conditions: myoblast cell line derived from SMNdelta7 mouse model; 24 hours compound treatment; concentration range 100 pM-10 uM
# Procedure: A cellular SMN ELISA was used to measure the effects of low molecular weight compounds on SMN protein elevation. Cells from a myoblast cell line derived from the SMNdelta7 mouse model (kind gift from Steve Burden, NYU) were seeded into a 384-well plate at a density of 3000 cells/well and treated with compounds for 24 hours. ELISA capture plates were prepared by coating 384-well plates (Immulon 4HBX) with 0.5 ug/mL of anti-SMN mAb (BD Science, Catalog number 610647) at 4° C. overnight. The plates were washed 5 times with 110 uL of PBS-Tween (0.05% Tween-20, PBST), blocked with 100 uL of 1% BSA in PBST for 2 hours and washed (5 times) with 100 uL of PBST. After 24 hours of compound treatment cells were lysed in a modified RIPA-buffer, on ice for 1 hour. 20 uL of lysate and 20 uL of 1% BSA were then added to the ELISA capture plates and incubated at 4° C. overnight. Plates were washed (5 times) with PBST and then incubated with 1:100 dilution of primary rabbit anti-SMN polyclonal antibody (Santa cruz, Catalog number SC-15320) at room temperature for 1 hour and subsequently washed (5 times) with 110 uL of PBST. This was followed by addition of 1:100 Goat anti-Rabbit IgG-HRP linked (Cell Signaling, Catalog number 7074) secondary antibody for 1 hour. Plates were then washed with PBST and incubated with 40 uL TMB substrate (Cell Signaling, Catalog number 7004L) at room temperature for 1-10 minutes with shaking. The reaction was stopped by addition of 40 uL of stop solution (Cell signaling, Catalog number 7002L) and absorption was measured at 450 nm. Data was reported as fold activation over DMSO control and EC50. ELISA assay condition: compound concentration range 100 pM-10 uM.
SMILES,EC50,SMN Activity Fold (fold activation over DMSO control)
"CN(c1nnc(-c2ccc(-c3ccn[nH]3)c(F)c2F)s1)C1CC(C)(C)NC(C)(C)C1 [Example 49, 5-(2,3-difluoro-4-(1H-pyrazol-5-yl)phenyl)-N-methyl-N-(2,2,6,6-tetramethylpiperidin-4-yl)-1,3,4-thiadiazol-2-amine]",81 nM,2.42 fold
"CN(c1nnc(-c2cc(F)c(-c3cn[nH]c3)cc2F)s1)C1CC(C)(C)NC(C)(C)C1 [Example 50, 5-(2,5-difluoro-4-(1H-pyrazol-4-yl)phenyl)-N-methyl-N-(2,2,6,6-tetramethylpiperidin-4-yl)-1,3,4-thiadiazol-2-amine]",20 nM,3.07 fold
"CN(c1nnc(-c2cc(F)c(-c3ccn[nH]3)cc2F)s1)C1CC(C)(C)NC(C)(C)C1 [Example 51, 5-(2,5-difluoro-4-(1H-pyrazol-5-yl)phenyl)-N-methyl-N-(2,2,6,6-tetramethylpiperidin-4-yl)-1,3,4-thiadiazol-2-amine]",85 nM,2.86 fold
"CN(c1nnc(-c2c(F)cc(-c3cn[nH]c3)cc2F)s1)C1CC(C)(C)NC(C)(C)C1 [Example 52, 5-(2,6-difluoro-4-(1H-pyrazol-4-yl)phenyl)-N-methyl-N-(2,2,6,6-tetramethylpiperidin-4-yl)-1,3,4-thiadiazol-2-amine]",61 nM,3.30 fold
"Fc1cc(-c2nnc(N3C[C@H]4CNC[C@H]4C3)s2)c(F)cc1-c1cn[nH]c1 [Example 53, 2-(2,5-difluoro-4-(1H-pyrazol-4-yl)phenyl)-5-((3aR,6aS)-hexahydropyrrolo[3,4-c]pyrrol-2(1H)-yl)-1,3,4-thiadiazole]",70 nM,2.56 fold
"CN(c1nnc(-c2cc(F)c(-c3cn[nH]c3)cc2Cl)s1)C1CC(C)(C)NC(C)(C)C1 [Example 54, 5-(2-chloro-5-fluoro-4-(1H-pyrazol-4-yl)phenyl)-N-methyl-N-(2,2,6,6-tetramethylpiperidin-4-yl)-1,3,4-thiadiazol-2-amine]",47 nM,3.16 fold
"CN(c1nnc(-c2ncc(-c3cn[nH]c3)cc2F)s1)C1CC(C)(C)NC(C)(C)C1 [Example 55, 5-(3-fluoro-5-(1H-pyrazol-4-yl)pyridin-2-yl)-N-methyl-N-(2,2,6,6-tetramethylpiperidin-4-yl)-1,3,4-thiadiazol-2-amine]",1010 nM,2.75 fold
"CN(c1nnc(-c2ccc(-c3ccnc(N)n3)cc2Cl)s1)C1CC(C)(C)NC(C)(C)C1 [Example 56, 5-(4-(2-aminopyrimidin-4-yl)-2-chlorophenyl)-N-methyl-N-(2,2,6,6-tetramethylpiperidin-4-yl)-1,3,4-thiadiazol-2-amine]",41 nM,2.47 fold
"CN(c1nnc(-c2cc(-c3ccnc(N)n3)ccc2Cl)s1)C1CC(C)(C)NC(C)(C)C1 [Example 57, 5-(5-(2-aminopyrimidin-4-yl)-2-chlorophenyl)-N-methyl-N-(2,2,6,6-tetramethylpiperidin-4-yl)-1,3,4-thiadiazol-2-amine]",94 nM,2.55 fold
"Cc1nc(C)c(-c2cc(F)c(-c3nnc(N(C)C4CC(C)(C)NC(C)(C)C4)s3)cc2F)s1 [Example 58, 5-(4-(2,4-dimethylthiazol-5-yl)-2,5-difluorophenyl)-N-methyl-N-(2,2,6,6-tetramethylpiperidin-4-yl)-1,3,4-thiadiazol-2-amine]",386 nM,2.41 fold
"Cc1nc(C)c(-c2ccc(-c3nnc(N(C)C4CC(C)(C)NC(C)(C)C4)s3)c(F)c2F)s1 [Example 59, 5-(4-(2,4-dimethylthiazol-5-yl)-2,3-difluorophenyl)-N-methyl-N-(2,2,6,6-tetramethylpiperidin-4-yl)-1,3,4-thiadiazol-2-amine]",1500 nM,2.69 fold
